Assays:
[1] = tested on: Russian thistle; assay: Test C pre-/postemergence test; format: in vivo, Salsola kali; settings: Preemergence
Text: Seeds of plant species selected from blackgrass (Alopecurus myosuroides), downy brome (Bromus tectorum), green foxtail (Setaria viridis), Italian ryegrass (Lolium multiflorum), wheat (Triticum aestivum), wild oat (Avena fatua), catchweed bedstraw (Galium aparine), Russian thistle (Salsola kali), […] (Cynodon dactylon), Surinam grass (Brachiaria decumbens), cocklebur (Xanthium strumarium), corn (Zea mays), crabgrass (Digitaria sanguinalis), woolly cupgrass (Eriochloa villosa), giant foxtail (Setaria faberii), Goosegrass (Eleusin indica), johnsongrass (Sorghum halepense), kochia (Kochia scoparia), lambsquarters (Chenopodium album), morningglory (Ipomoea coccinea), eastern black nightshade (Solanum ptycanthum), yellow nutsedge (Cyperus esculentus), pigweed (Amaranthus retroflexus), common ragweed (Ambrosia elation), soybean (Glycine max), common (oilseed) sunflower (Helianthus annuus), and velvetleaf (Abutilon theophrasti) were planted and treated preemergence with test chemicals formulated in a non-phytotoxic solvent mixture which included a surfactant. At the same time, plants selected from these crop and weed species and also winter barley (Hordeum vulgare), canarygrass (Phalaris minor), and chickweed (Stellaria media) were treated with postemergence applications of some of the test chemicals formulated in the same manner. Plants ranged in height from 2 to 18 cm (1- to 4-leaf stage) for postemergence treatments. […] At time of treatment, test pots were flooded to 3 cm above the soil surface, treated by application of test compounds directly to the paddy water, and then maintained at that water depth for the duration of the test. […] A dash (-) response means no test result.

[2] = tested on: field bindweed; assay: Test F preemergence test; format: in vivo, Convolvulus arvensis; settings: scale 0 to 100
Procedure, shortened: (§1)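 Test chemicals were formulated in a non-phytotoxic solvent mixture with surfactant and applied preemergence to planted seeds or postemergence to sugarcane plants. Plants were kept in a greenhouse for 14 to 21 days, then visually evaluated against controls.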

[3] = tested on: bermudagrass; assay: Test F preemergence test; format: in vivo, Cynodon dactylon; settings: scale 0 to 100
Procedure, shortened: as §1

[4] = tested on: prickly sida; assay: Test F preemergence test; format: in vivo, Sida spinosa; settings: scale 0 to 100
Procedure, shortened: as §1

[5] = tested on: Surinam grass; assay: Test F preemergence test; format: in vivo, Brachiaria decumbens; settings: scale 0 to 100; for Surinam Grass plant response rating: 125 g ai/ha
Procedure, shortened: as §1

[6] = tested on: broadleaf signalgrass; assay: Test F preemergence test; format: in vivo, Brachiaria platyphylla; settings: scale 0 to 100; for Signalgrass plant response rating: 125 g ai/ha
Procedure, shortened: as §1

[7] = tested on: southern sandbur; assay: Test F preemergence test; format: in vivo, Cenchrus echinatus; settings: scale 0 to 100; for Sandbur plant response rating: 125 g ai/ha
Procedure, shortened: as §1

[8] = tested on: goosegrass; assay: Test F preemergence test; format: in vivo, Eleusine indica; settings: scale 0 to 100
Procedure, shortened: as §1

[9] = tested on: pitted morningglory; assay: Test F preemergence test; format: in vivo, Ipomoea lacunosa; settings: scale 0 to 100
Procedure, shortened: as §1

[10] = tested on: Italian ryegrass; assay: Test F preemergence test; format: in vivo, Lolium multiflorum; settings: scale 0 to 100; for Ryegrass, Italian plant response rating: 125 g ai/ha
Procedure, shortened: as §1

[11] = tested on: common ragweed; assay: Test F preemergence test; format: in vivo, Ambrosia elation; settings: scale 0 to 100; for Ragweed plant response rating: 125 g ai/ha
Procedure, shortened: as §1

[12] = tested on: guineagrass; assay: Test F preemergence test; format: in vivo, Panicum maximum; settings: scale 0 to 100
Procedure, shortened: as §1

[13] = tested on: purple nutsedge; assay: Test F preemergence test; format: in vivo, Cyperus rotundus; settings: scale 0 to 100
Procedure, shortened: as §1

[14] = tested on: itchgrass; assay: Test F preemergence test; format: in vivo, Rottboellia cochinchinensis; settings: scale 0 to 100
Procedure, shortened: as §1

[15] = tested on: common purslane; assay: Test F preemergence test; format: in vivo, Portulaca oleracea; settings: scale 0 to 100
Procedure, shortened: as §1

[16] = tested on: johnsongrass; assay: Test F preemergence test; format: in vivo, Sorghum halepense; settings: scale 0 to 100
Procedure, shortened: as §1

[17] = tested on: naked crabgrass; assay: Test F preemergence test; format: in vivo, Digitaria nuda; settings: scale 0 to 100
Procedure, shortened: as §1

CC(c1c(C(F)(F)F)nn(C)c1OC(F)F)S(=O)(=O)c1cc(C(C)(C)C)cc[n+]1[O-] (racemic) [Compound 26]
Russian Thistle plant response rating ([1]; 62 g ai/ha, scale 0 to 100): 50
Plant response rating, Russian Thistle ([1]; 31 g ai/ha, scale 0 to 100 (0 no effect, 100 complete control)): 0

Cn1nc(C(F)(F)F)c(C[S+]([O-])c2ccc(F)c[n+]2[O-])c1OCC(F)(F)F (stereo not shown) [Compound 67]
Plant response rating, Field Bindweed ([2]; 16 g ai/ha, preemergence): 0
Field Bindweed plant response rating ([2]; 62 g ai/ha, Preemergence): 35
Field Bindweed plant response rating ([2]; 125 g ai/ha, preemergence): 80
Plant response rating, Field Bindweed ([2]; Preemergence, 31 g ai/ha): 10
Plant response rating, Bermudagrass ([3]; 16 g ai/ha, preemergence): 20
Bermudagrass plant response rating ([3]; 62 g ai/ha, Preemergence): 98
Bermudagrass plant response rating ([3]; 125 g ai/ha, preemergence): 100
Plant response rating, Bermudagrass ([3]; Preemergence, 31 g ai/ha): 75
Plant response rating, Prickly Sida ([4]; 16 g ai/ha, preemergence): 0
Prickly Sida plant response rating ([4]; 62 g ai/ha, Preemergence): 90
Prickly Sida plant response rating ([4]; 125 g ai/ha, preemergence): 98
Plant response rating, Prickly Sida ([4]; Preemergence, 31 g ai/ha): 65
Plant response rating, Surinam Grass ([5]; 16 g ai/ha, preemergence): 75
Surinam Grass plant response rating ([5]; preemergence): 100
Plant response rating, Surinam Grass ([5]; Preemergence, 62 g ai/ha): 100
Plant response rating, Surinam Grass ([5]; Preemergence, 31 g ai/ha): 95
Plant response rating, Signalgrass ([6]; 16 g ai/ha, preemergence): 0
Signalgrass plant response rating ([6]; preemergence): 98
Plant response rating, Signalgrass ([6]; Preemergence, 62 g ai/ha): 90
Plant response rating, Signalgrass ([6]; Preemergence, 31 g ai/ha): 30
Plant response rating, Sandbur ([7]; 16 g ai/ha, preemergence): 60
Sandbur plant response rating ([7]; preemergence): 100
Plant response rating, Sandbur ([7]; Preemergence, 62 g ai/ha): 100
Plant response rating, Sandbur ([7]; Preemergence, 31 g ai/ha): 100
Plant response rating, Goosegrass ([8]; 16 g ai/ha, preemergence): 50
Goosegrass plant response rating ([8]; 62 g ai/ha, Preemergence): 80
Goosegrass plant response rating ([8]; 125 g ai/ha, preemergence): 100
Plant response rating, Goosegrass ([8]; Preemergence, 31 g ai/ha): 70
Plant response rating, Morningglory ([9]; 16 g ai/ha, preemergence): 40
Morningglory plant response rating ([9]; 62 g ai/ha, Preemergence): 70
Morningglory plant response rating ([9]; 125 g ai/ha, preemergence): 90
Plant response rating, Morningglory ([9]; Preemergence, 31 g ai/ha): 70
Plant response rating, Ryegrass, Italian ([10]; 16 g ai/ha, preemergence): 40
Ryegrass, Italian plant response rating ([10]; preemergence): 100
Plant response rating, Ryegrass, Italian ([10]; Preemergence, 62 g ai/ha): 100
Plant response rating, Ryegrass, Italian ([10]; Preemergence, 31 g ai/ha): 75
Plant response rating, Ragweed ([11]; 16 g ai/ha, preemergence): 20
Ragweed plant response rating ([11]; preemergence): 98
Plant response rating, Ragweed ([11]; Preemergence, 62 g ai/ha): 90
Plant response rating, Ragweed ([11]; Preemergence, 31 g ai/ha): 65
Plant response rating, Guineagrass ([12]; 16 g ai/ha, preemergence): 0
Guineagrass plant response rating ([12]; 62 g ai/ha, Preemergence): 100
Guineagrass plant response rating ([12]; 125 g ai/ha, preemergence): 100
Plant response rating, Guineagrass ([12]; Preemergence, 31 g ai/ha): 95
Plant response rating, Purple Nutsedge ([13]; 16 g ai/ha, preemergence): 0
Purple Nutsedge plant response rating ([13]; 62 g ai/ha, Preemergence): 60
Purple Nutsedge plant response rating ([13]; 125 g ai/ha, preemergence): 95
Plant response rating, Purple Nutsedge ([13]; Preemergence, 31 g ai/ha): 30
Plant response rating, Itchgrass ([14]; 16 g ai/ha, preemergence): 15
Itchgrass plant response rating ([14]; 62 g ai/ha, Preemergence): 65
Itchgrass plant response rating ([14]; 125 g ai/ha, preemergence): 100
Plant response rating, Itchgrass ([14]; Preemergence, 31 g ai/ha): 25
Plant response rating, Purslane ([15]; 16 g ai/ha, preemergence): 0
Purslane plant response rating ([15]; 62 g ai/ha, Preemergence): 95
Purslane plant response rating ([15]; 125 g ai/ha, preemergence): 100
Plant response rating, Purslane ([15]; Preemergence, 31 g ai/ha): 0
Plant response rating, Johnsongrass ([16]; 16 g ai/ha, preemergence): 35
Johnsongrass plant response rating ([16]; 62 g ai/ha, Preemergence): 75
Johnsongrass plant response rating ([16]; 125 g ai/ha, preemergence): 95
Plant response rating, Johnsongrass ([16]; Preemergence, 31 g ai/ha): 75
Plant response rating, Crabgrass, Naked ([17]; 16 g ai/ha, preemergence): 60
Crabgrass, Naked plant response rating ([17]; 62 g ai/ha, Preemergence): 100
Crabgrass, Naked plant response rating ([17]; 125 g ai/ha, preemergence): 100
Plant response rating, Crabgrass, Naked ([17]; Preemergence, 31 g ai/ha): 70

Cn1nc(C(F)(F)F)c(C[S+]([O-])c2ccc(Cl)c[n+]2[O-])c1OCC(F)F (stereo not shown) [Compound 85]
Plant response rating, Field Bindweed ([2]; 16 g ai/ha, preemergence): 0
Field Bindweed plant response rating ([2]; 125 g ai/ha, preemergence): 35
Plant response rating, Field Bindweed ([2]; Preemergence, 62 g ai/ha): 20
Plant response rating, Field Bindweed ([2]; Preemergence, 31 g ai/ha): 0
Plant response rating, Bermudagrass ([3]; 16 g ai/ha, preemergence): 20
Bermudagrass plant response rating ([3]; 125 g ai/ha, preemergence): 95
Plant response rating, Bermudagrass ([3]; Preemergence, 62 g ai/ha): 80
Plant response rating, Bermudagrass ([3]; Preemergence, 31 g ai/ha): 60
Plant response rating, Prickly Sida ([4]; 16 g ai/ha, preemergence): 0
Prickly Sida plant response rating ([4]; 125 g ai/ha, preemergence): 60
Plant response rating, Prickly Sida ([4]; Preemergence, 62 g ai/ha): 40
Plant response rating, Prickly Sida ([4]; Preemergence, 31 g ai/ha): 20
Plant response rating, Surinam Grass ([5]; 16 g ai/ha, preemergence): 60
Surinam Grass plant response rating ([5]; preemergence): 100
Plant response rating, Surinam Grass ([5]; Preemergence, 62 g ai/ha): 100
Plant response rating, Surinam Grass ([5]; Preemergence, 31 g ai/ha): 100
Plant response rating, Signalgrass ([6]; 16 g ai/ha, preemergence): 60
Signalgrass plant response rating ([6]; preemergence): 80
Plant response rating, Signalgrass ([6]; Preemergence, 62 g ai/ha): 70
Plant response rating, Signalgrass ([6]; Preemergence, 31 g ai/ha): 70
Plant response rating, Sandbur ([7]; 16 g ai/ha, preemergence): 10
Sandbur plant response rating ([7]; preemergence): 100
Plant response rating, Sandbur ([7]; Preemergence, 62 g ai/ha): 100
Plant response rating, Sandbur ([7]; Preemergence, 31 g ai/ha): 70
Plant response rating, Goosegrass ([8]; 16 g ai/ha, preemergence): 35
Goosegrass plant response rating ([8]; 125 g ai/ha, preemergence): 100
Plant response rating, Goosegrass ([8]; Preemergence, 62 g ai/ha): 80
Plant response rating, Goosegrass ([8]; Preemergence, 31 g ai/ha): 65
Plant response rating, Morningglory ([9]; 16 g ai/ha, preemergence): 0
Plant response rating, Ryegrass, Italian ([10]; 16 g ai/ha, preemergence): 65
Ryegrass, Italian plant response rating ([10]; preemergence): 100
Plant response rating, Ryegrass, Italian ([10]; Preemergence, 62 g ai/ha): 100
Plant response rating, Ryegrass, Italian ([10]; Preemergence, 31 g ai/ha): 65
Plant response rating, Ragweed ([11]; 16 g ai/ha, preemergence): 0
Ragweed plant response rating ([11]; preemergence): 80
Plant response rating, Ragweed ([11]; Preemergence, 62 g ai/ha): 80
Plant response rating, Ragweed ([11]; Preemergence, 31 g ai/ha): 20
Plant response rating, Guineagrass ([12]; 16 g ai/ha, preemergence): 50
Guineagrass plant response rating ([12]; 125 g ai/ha, preemergence): 100
Plant response rating, Guineagrass ([12]; Preemergence, 62 g ai/ha): 98
Plant response rating, Guineagrass ([12]; Preemergence, 31 g ai/ha): 98
Plant response rating, Purple Nutsedge ([13]; 16 g ai/ha, preemergence): 0
Purple Nutsedge plant response rating ([13]; 125 g ai/ha, preemergence): 65
Plant response rating, Purple Nutsedge ([13]; Preemergence, 62 g ai/ha): 50
Plant response rating, Purple Nutsedge ([13]; Preemergence, 31 g ai/ha): 0
Plant response rating, Itchgrass ([14]; 16 g ai/ha, preemergence): 25
Itchgrass plant response rating ([14]; 125 g ai/ha, preemergence): 90
Plant response rating, Itchgrass ([14]; Preemergence, 62 g ai/ha): 70
Plant response rating, Itchgrass ([14]; Preemergence, 31 g ai/ha): 70
Plant response rating, Purslane ([15]; 16 g ai/ha, preemergence): 0
Purslane plant response rating ([15]; 125 g ai/ha, preemergence): 60
Plant response rating, Purslane ([15]; Preemergence, 62 g ai/ha): 60
Plant response rating, Purslane ([15]; Preemergence, 31 g ai/ha): 25
Plant response rating, Johnsongrass ([16]; 16 g ai/ha, preemergence): 40
Johnsongrass plant response rating ([16]; 125 g ai/ha, preemergence): 98
Plant response rating, Johnsongrass ([16]; Preemergence, 62 g ai/ha): 90
Plant response rating, Johnsongrass ([16]; Preemergence, 31 g ai/ha): 75
Plant response rating, Crabgrass, Naked ([17]; 16 g ai/ha, preemergence): 75
Crabgrass, Naked plant response rating ([17]; 125 g ai/ha, preemergence): 95
Plant response rating, Crabgrass, Naked ([17]; Preemergence, 62 g ai/ha): 90
Plant response rating, Crabgrass, Naked ([17]; Preemergence, 31 g ai/ha): 80
